Like-named read-outs stand apart in the source and are kept apart here.

In data set [1] the test system is male Wistar rats. The data set can be described thus: Urine alanine aminopeptidase to creatinine ratio (proximal tubular kidney damage). It is filed as in vivo, rat. Particulars: oral gavage, urine collected for 6 hours. From the text:
(§1) Myocardial infarction and ischemic events in high risk patients led one of the most popular COX-2 inhibitors to its demise (Bresalier et al., 2005). Non-selective NSAIDS may also cause similar problems due to their ability to inhibit COX-2. […] Adenosine diphosphate (ADP) generation is an indicator of myocardial infarction which has no connection with the arachidonic acid cascade (Borna et al., 2005). […] Long term NSAID use has been linked to kidney damage and hypertension (Zafirovska et al., 1993). […] This was associated with an increase in the urine the ratio of alanine-amino-peptidase (AAP) and creatinine.
(§2) Table 1 is a summary of the protocol for a study which was conducted in male Wistar rats weighing 275-300 grams. The animals were allowed to acclimatize for at least five days prior to the commencement of the study. The study protocol was approved by the local animal ethics committee.
(§3) All test animals, housed in metabolic cages, had urine collected over wet ice for 6 hours after dosing. Aliquots of the urine from each animal were collected to determine creatinine concentration. The remainder of the urine was centrifuged at 1000 g for 10 minutes. The supernatant was collected and mixed with analytical grade ethylene glycol at a rate of 0.4 mL ethylene glycol per 1 mL urine supernatant. The ethylene glycol/urine mixture was stored at −80° C. until analysis.

For data set [2] the following is noted: Rat; estimated from Table II - Runkle, 1972; cited from earlier work.
A short description of data set [3]: Serum nitrate concentration (NO release) after oral dosing. It is filed as in vivo, rat. Particulars: male Wistar rats, oral gavage, at 6 hours. As to the method: as §2
(§4) The animals were fasted overnight prior to test substance administration. The test substance was administered orally by gavage on the morning of the study day. All test animals had blood collected during the test period in both EDTA (ethylenediaminetetraacetic acid) tubes and SST (Serum Separator Tubes) at 1, 3 and 6 hours after dosing. Blood was collected into EDTA tubes only at 1 and 3 hours by tail tip amputation. Volume of blood collected was between 0.5 and 1 mL at each of these collections. The final collection was by puncture of the abdominal vena cava under isoflurane general anesthesia. Final blood collection was targeted as follows: 1st EDTA #1—1.5 mL; 2nd SST—1.5 mL; 3rd EDTA #2—as much as possible.
EDTA samples were centrifuged, and the plasma portion was collected and frozen at −80° C. SST samples were incubated at 37° C. for approximately 45 minutes, centrifuged, and the serum was collected and frozen at −80° C. until analysis.

For data set [4], the system named is male Wistar rats. The data set can be described thus: Urine N-acetylglucosaminidase to creatinine ratio (distal tubule toxicity). It is filed as in vivo, rat. The note with it: oral gavage, urine collected for 6 hours. As to the method: as §2, §3
In data set [5] the test system is cardiac tissue prostacyclin (PGI2) to thromboxane A2 (TXB2) ratio. Briefly: Cardiac tissue prostacyclin to thromboxane ratio. Type of data set: in vivo, rat. The note with it: male Wistar rats.
Description: as §1, §2
All rats were euthanized by removal of the heart 6 hours after initial dosing, following final blood collections. Immediately after terminal blood collections were complete, the thorax was opened and the heart removed. The heart was cut in half longitudinally. Half of the heart was placed in formalin for histological examination. The other half was quickly rinsed in saline and then freeze-clamped (crushed between the jaws of a pair of modified tongs, cooled by liquid nitrogen). An entire kidney was freeze-clamped. The other kidney was left in situ for examination by the pathologist. Freeze-clamped tissues were wrapped in labeled aluminum foil and stored in liquid nitrogen until they could be transferred to a −80° C. freezer. Freeze-clamped tissues were shipped on dry ice to NOVOKIN for analysis.

The conditions of data set [6]: Human; estimated from Table II - Runkle, 1972; cited from earlier work.
Data set [7] relates to male Wistar rats. The data set can be described thus: Gastric ulcer index after oral dosing. Type of data set: in vivo, rat. As to the method: as §2, §4
Each animal from all groups underwent a full necropsy under the supervision of a board certified veterinary pathologist. The stomach of each rat was cut along the greater curvature, contents removed into a polypropylene (Falcon) tube, the mucosa rinsed with saline and any obvious ulcers or erosions were measured along the longest axis. This measurement was recorded for each ulcer or erosion observed in each stomach. The falcon tubes and their contents were frozen at −80° C. and shipped to Novokin on dry ice for analysis.
The aggregate length of all gastric ulcers found in a given animal was calculated. The mean aggregate ulcer length across animals in a group was calculated. This mean value was reported as the ulcer index for that group.
The ulcer index of each modified drug was compared with the ulcer index of its associated parent drug and the controls using analysis of variance and Duncan's multiple range test for pairwise comparisons. Statistical analysis was done using SAS® (SAS Institute Inc., Cary, N.C.).

For `COc1ccc2cc([C@H](C)C(=O)O)ccc2c1` [NAP, naproxen], in the data set on male Wistar rats [1], the “AAP/Cr (urine alanine aminopeptidase to creatinine), Mean” value amounted to 263.788. Further, the liver microsomal activity is 0.0075 mL/min/organ in data set [2] and 0.0092 mL/min/organ in data set [6]. In addition, the “Serum Nitrate Concentrations, Mean” value in data set [3] is recorded as 55.167. The “Urine NAG/Cr values, Mean” value in the data set on male Wistar rats [4] amounted to 30.865. Moreover, in data set [5] (cardiac tissue), the “PGI2 and TXA2 levels (in words)” value was “lowered both PGI2 and TXA2 levels”. For the same molecule, the “Cardiac Tissue PGI2/TXB2, Mean” value in data set [5] (oral gavage, heart removed 6 hours after dosing) worked out at 4.544. Besides, the “Ulcer Indices, Mean” value in the data set on male Wistar rats [7] (oral gavage, naproxen 250 mg/kg or molar equivalent (ROF 250 mg/kg), 6 h after dosing, mean aggregate gastric ulcer length) stood at 4.282. Moreover, in the data set on male Wistar rats [7] (oral, 6 h), the “Ulcerogenicity (in words)” value is given as “severely ulcerogenic”.

The values above are taken from patent US20080288176A1 (priority 2005, published 2008).
